In brackets after ≈: the same amount, converted by molar mass. One block for each compound: values may come before it.
Legend:
[1] = tested on: S. aureus RN450; assay: Antibacterial activity MIC, Gram+ (Table 9); assay type: cell-based; details: Staphylococcus aureus, CAMHB, 35° C., approximately 18 hr
Description: (§1) 2 mg of each compound is dissolved in 100 μl of DMSO. The solution is then added to cation-adjusted Mueller Hinton broth (CAMHB), which results in a final compound concentration of 200 μg per ml. The tetracycline compound solutions are diluted to 50 μL volumes, with a test compound concentration of 0.098 μg/ml. Optical density (OD) determinations are made from fresh log-phase broth cultures of the test strains. Dilutions are made to achieve a final cell density of 1×10^6 CFU/ml. At OD=1, cell densities for different genera should be approximately:
(§2) 50 μl of the cell suspensions are added to each well of microtiter plates. The final cell density should be approximately 5×10^5 CFU/ml. These plates are incubated at 35° C. in an ambient air incubator for approximately 18 hr. The plates are read with a microplate reader and are visually inspected when necessary. The MIC is defined as the lowest concentration of the tetracycline compound that inhibits growth.

[2] = tested on: E. coli 25922; assay: Antibacterial activity MIC, Gram- (Table 9); assay type: cell-based; details: Escherichia coli, CAMHB, 35° C., approximately 18 hr
Description: as §1, §2

[3] = tested on: collagen-induced arthritis (CIA) in male DBA/1 mice; assay: CIA model, Example 3 (cumulative scores vs untreated controls); assay type: in vivo; details: Mus musculus
Description: The CIA model data were acquired according to the following protocol: • 1. Male DBA/1 mice were anaesthetized by i.p. injection of ketamine/xylazine (1.25 mg/ml:0.25 mg/ml, 100 μl/mouse). • 2. Anaesthetized mice were immunized intradermally at the base of the tail with 0.1 or 0.2 ml of an emulsion composed of 100 or 200 μg bovine type II collagen in Complete Freund's Adjuvant (50 μl/spot x 2 or 4 spots). • 3. At day 21 after the immunization, mice received an intradermal boost of 100 μl of an emulsion composed of 100 μg bovine type II collagen in Incomplete Freund's Adjuvant (50 μl/spot x 2 spots) • 4. After onset of disease symptoms (usually 3-4 days after boost), tetracycline derivatives were administered daily into mice via intraperitoneal or oral routes for 8 to 15 days. Methotrexate (12 mg/kg/day) or dexmethasone (4 mg/kg/day) was used as a control for inflammation suppression. • 5. The disease severity was scored daily for 8-15 days after the appearance of the symptoms. Disease severity was graded as following: • a. Visual clinical score for the presence of inflammation in the fingers/toes of the forepaws and hindpaws: • 1. Erythema and mild swelling confined to the mid-foot (tarsals) or ankle joint • 2. Erythema and mild swelling extending from the ankle to the mid-foot • 3. Erythema and moderate swelling extending from the ankle to the metatarsal joints • 4. Erythema and severe swelling encompassing the ankle, foot, and digits. • b. Clinical swelling score for the presence of paw edema in the forepaws and hindpaws: • Paw thickness was measured daily by an engineering micrometer after isofluorane inhalation or ketamine/xylazine (1.25 mg/ml:0.25 mg/ml, 100 μl/mouse) i.p. injection.
Daily scores and paw swelling measurements for each treatment group of mice were added over the total observation period to obtain a cumulative score. Cumulative scores were compared between untreated controls and treated groups to determine tetracycline-induced inhibition.

[4] = tested on: cytokines (IL-1, IL-6, RANKL and MCP-1) and a matrix metalloproteinase (MMP-9); assay: Paw extract biomarker ELISA, CIA mice: whole panel (statements in words); assay type: in vivo, mouse
Description: (§3) • 1. Male DBA/1 mice were immunized i.d. with an emulsion of 200 μg bovine type II collagen in Complete Freund's Adjuvant. • 2. On day 21, mice received i.d. boost of 100 μg collagen in Incomplete Freund's Adjuvant • 3. Compounds were administered i.p. daily for 7 days starting from disease onset (day 3-4 after boost). • 4. Foot swelling was measured by an engineering micrometer and disease severity was scored accordingly (1, erythema and mild swelling confined to the tarsal or ankle joint; 2, erythema and mild swelling extending from the ankle to the mid-foot; 3, erythema and moderate swelling extending from the ankle to the metatarsal joints; 4, erythema and severe swelling encompassing the ankle, foot, and digits). • 5. Change (Δ) of paw thickness=sum of paw thickness from 4 paws of a mouse (experimental)−sum of baseline paw thickness from 4 paws of the same mouse. • 6. % inhibition=cumulative A paw thickness (disease group−compound-treated group)/cumulative A paw thickness (disease group)
(§4) • 1. Paws were collected from mice after 5-7 days of dosing and dissected free of skin. • 2. The paws were then homogenized in ice-cold PBS (2 ml/4 paws/mouse) containing 1× protease inhibitor using a Polytron homogenizer. • 3. Debris and particles were removed from the homogenized samples by centrifugation. • 4. Liquid layers were collected for MMP-9, IL-1, IL-6, RANKL, MCP-1, and TNFα analysis using ELISA kits from R & D System.

[5] = tested on: E. coli ATCC25922 (tetracycline sensitive); assay: E. coli MIC, broth micro-dilution per CLSI guidelines (Table 3); assay type: cell-based; details: for MIC: Escherichia coli, E. coli ATCC25922, cation-adjusted Mueller Hinton broth
[6] = Pharmacokinetics in rats after i.v. and oral dosing; assay type: in vivo; details: rat; for bioavailability: male, CD/IGS, after oral dosing of 5 mg/kg, read-out: PK Parameters (Rat) % F, fraction of absorption; for bioavailability / half-life: plasma; for half-life: male CD/IGS rats, 1 mg/kg i.v. or 5 mg/kg oral, read-out: PK Parameters (Rat) T1/2 (converted)
Description: Pre-cannulated (jugular vein and carotid artery for i.v. group and carotid artery for oral group) male CD/IGS rats (approximately 250 g) were used. Rats were fasted overnight prior to dosing with access to food restored 2 hours after dosing. Rats were administered with approximately 0.25 mL compound (1 mg/kg dose) for i.v. route (via jugular vein over 20 seconds) or 0.5 mL solution (5 mg/kg dose) orally. Blood (300 μL) was collected in tubes with EDTA anticoagulant at various time points, centrifuged and plasma collected and stored frozen at −20° C. Animals were euthanized by CO2 following the final blood collection. Plasma was extracted (0.1% trifluoroacetic acid in 67% acetonitrile/33% water) and levels of compound quantified by HPLC/MS against a standard curve.

[7] = tested on: Protein synthesis (E. coli S30 Extract System); assay: Protein synthesis inhibition, in vitro transcription/translation assay (E. coli S30 Extract System for Circular DNA); assay type: biochemical
[8] = tested on: collagen-induced arthritis (CIA) in male DBA/1 mice; assay: Murine collagen-induced arthritis (CIA) model, Example 2; assay type: in vivo, mouse; details: for EC50 in inflammation suppression in CIA mice: i.p. daily
Description: Four non-antibacterial analogues of minocycline (J, W, AF and AT) were synthesized and tested in the murine model of the disease, collagen-induced arthritis (CIA) (See supra). Male DBA/1 mice were immunized intradermally with 200 μg of bovine type II collagen and boosted with collagen three weeks later. Minocycline and four non-antibacterial minocycline derivatives were administered i.p. beginning after disease onset. Paw thickness was measured and animals were scored daily.
as §3

[9] = tested on: IL-1; assay: Paw extract biomarker ELISA, CIA mice: IL-1; assay type: in vivo, mouse; details: paw extracts from CIA mice
Description: as §3, §4

[10] = tested on: RANKL; assay: Paw extract biomarker ELISA, CIA mice: RANKL; assay type: in vivo, mouse; details: paw extracts from CIA mice
Description: as §3, §4

[11] = tested on: MCP-1; assay: Paw extract biomarker ELISA, CIA mice: MCP-1; assay type: in vivo, mouse; details: paw extracts from CIA mice
Description: as §3, §4

[12] = tested on: MMP-9; assay: Paw extract biomarker ELISA, CIA mice: MMP-9; assay type: in vivo, mouse; details: paw extracts from CIA mice
Description: as §3, §4

[13] = tested on: IL-6; assay: Paw extract biomarker ELISA, CIA mice: IL-6; assay type: in vivo, mouse; details: paw extracts from CIA mice
Description: as §3, §4

[14] = 25 mg/kg/day i.p., dosed after disease onset
[15] = day 1 of dosing, 25 mg/kg/day i.p.
[16] = day 2 of dosing, 25 mg/kg/day i.p.
[17] = day 3 of dosing, 25 mg/kg/day i.p.
[18] = day 4 of dosing, 25 mg/kg/day i.p.
[19] = day 5 of dosing, 25 mg/kg/day i.p.
[20] = day 6 of dosing, 25 mg/kg/day i.p.
[21] = day 7 of dosing, 25 mg/kg/day i.p.
[22] = day 8 of dosing, 25 mg/kg/day i.p.

Compound: CN(C)c1cc(-c2cccn2C)c(O)c2c1C[C@H]1C[C@H]3CC(O)=C(C(N)=O)C(=O)[C@@]3(O)C(O)=C1C2=O [Compound AT]
- MIC [1]: 1 µg/mL (≈ 2.03 µM)
- MIC [2]: > 64 µg/mL
- inhibition in vivo at 6 mg/kg ([3]; Dose 6 mg/kg): 45%
- inhibition in vivo at 12 mg/kg ([3]; Dose 12 mg/kg): 49%
- inhibition in vivo at 25 mg/kg [3]: 81%
- inhibition of inflammatory/osteoclastic cytokines (MMP-9, IL-1, IL-6, MCP-1, RANKL) in vivo [4]: better than minocycline
- anti-bacterial activity compared to minocycline [5]: no anti-bacterial activity
- MIC [5]: > 64 µg/mL
- bioavailability [6]: 42%
- bio-available after oral dosing in rats ([6]; oral): bio-available
- half-life [6]: 6.4 h
- IC50 [7]: > 100 µM
- % Inhibition (Change in Paw Thickness) AVG [8, 14]: 81%
- % Inhibition (Clinical Score) AVG [8, 14]: 70%
- EC50 in inflammation suppression in CIA mice [8]: 12 mg/kg/day i.p.
- Change in Paw Thickness (mm) Mean [8, 15]: 0.94 mm
- Change in Paw Thickness (mm) Mean [8, 16]: 0.57 mm
- Change in Paw Thickness (mm) Mean [8, 17]: 0.55 mm
- Change in Paw Thickness (mm) Mean [8, 18]: 0.11 mm
- Change in Paw Thickness (mm) Mean [8, 19]: 0.05 mm
- Change in Paw Thickness (mm) Mean [8, 20]: 0.27 mm
- Change in Paw Thickness (mm) Mean [8, 21]: −0.01 mm
- Change in Paw Thickness (mm) Mean [8, 22]: −0.08 mm
- Effects on reduction of paw swelling and clinical score compared to either minocycline or methotrexate ([8]; murine CIA model): greater
- joint inflammation when administered after disease onset ([8]; murine CIA model): inhibited joint inflammation

Compound: C[C@@H]1C[C@H]2[C@@H]3CCC4=CC(=O)C=C[C@]4(C)[C@@]3(F)[C@@H](O)C[C@]2(C)[C@@]1(O)C(=O)CO [Dexamethasone, dexamethasone, reference compound]
- Percent level of Biomarker Tissue [c] Compared to Untreated Control, IL-1 AVG [9]: 16%
- Percent level of Biomarker Tissue [c] Compared to Untreated Control, RANKL AVG [10]: 10%
- Percent level of Biomarker Tissue [c] Compared to Untreated Control, MCP-1 AVG [11]: 5%
- Percent level of Biomarker Tissue [c] Compared to Untreated Control, MMP-9 AVG [12]: 35%
- Percent level of Biomarker Tissue [c] Compared to Untreated Control, IL-6 AVG [13]: 4%
- % Inhibition (Change in Paw Thickness) AVG ([8]; 4 mg/kg): 82%
- % Inhibition (Clinical Score) AVG ([8]; 4 mg/kg): 48%
- Change in Paw Thickness (mm) Mean ([8]; day 1 of dosing, 4 mg/kg/day i.p.): 0.92 mm
- Change in Paw Thickness (mm) Mean ([8]; day 2 of dosing, 4 mg/kg/day i.p.): 0.57 mm
- Change in Paw Thickness (mm) Mean ([8]; day 3 of dosing, 4 mg/kg/day i.p.): 0.47 mm
- Change in Paw Thickness (mm) Mean ([8]; day 4 of dosing, 4 mg/kg/day i.p.): −0.07 mm
- Change in Paw Thickness (mm) Mean ([8]; day 5 of dosing, 4 mg/kg/day i.p.): 0.03 mm
- Change in Paw Thickness (mm) Mean ([8]; day 6 of dosing, 4 mg/kg/day i.p.): −0.13 mm
- Change in Paw Thickness (mm) Mean ([8]; day 7 of dosing, 4 mg/kg/day i.p.): 0.04 mm
- Change in Paw Thickness (mm) Mean ([8]; day 8 of dosing, 4 mg/kg/day i.p.): −0.21 mm

- MIC [1]: 0.06 µg/mL (≈ 0.131 µM)
- MIC [2]: 1 µg/mL (≈ 2.19 µM)
- MIC [5]: 1 µg/mL (≈ 2.19 µM)
- bioavailability [6]: 31%
- half-life [6]: 3.6 h
- EC50 in inflammation suppression in CIA mice [8]: >50 mg/kg/day i.p.
Compound: CN(C)c1ccc(O)c2c1C[C@H]1C[C@H]3[C@H](N(C)C)C(O)=C(C(N)=O)C(=O)[C@@]3(O)C(O)=C1C2=O [Minocycline, minocycline, reference compound]
- Percent level of Biomarker Tissue [c] Compared to Untreated Control, IL-1 AVG [9]: 119%
- inhibition in vivo at 25 mg/kg [3]: 22%
- Percent level of Biomarker Tissue [c] Compared to Untreated Control, RANKL AVG [10]: 99%
- Percent level of Biomarker Tissue [c] Compared to Untreated Control, MCP-1 AVG [11]: 102%
- Percent level of Biomarker Tissue [c] Compared to Untreated Control, MMP-9 AVG [12]: 104%
- Percent level of Biomarker Tissue [c] Compared to Untreated Control, IL-6 AVG [13]: 114%
- % Inhibition (Change in Paw Thickness) AVG [8, 14]: 22%
- % Inhibition (Clinical Score) AVG [8, 14]: 18%
- inhibition of the disease (CIA) ([8]; 50 mg/kg/day i.p.): 45%
- Change in Paw Thickness (mm) Mean [8, 15]: 0.74 mm
- Change in Paw Thickness (mm) Mean [8, 16]: 0.72 mm
- Change in Paw Thickness (mm) Mean [8, 17]: 0.78 mm
- Change in Paw Thickness (mm) Mean [8, 18]: 0.86 mm
- Change in Paw Thickness (mm) Mean [8, 19]: 0.93 mm
- Change in Paw Thickness (mm) Mean [8, 20]: 1.07 mm
- Change in Paw Thickness (mm) Mean [8, 21]: 0.92 mm
- Change in Paw Thickness (mm) Mean [8, 22]: 1.18 mm

Reference: patent US20100190755A1, “TETRACYCLINE COMPOUNDS FOR THE TREATMENT OF RHEUMATOID ARTHRITIS AND RELATED METHODS OF TREATMENT” (priority 2008, published 2010)
